Measured values as given in US12559474B2, “Triazine derivatives having virus replication inhibitory activity and pharmaceutical composition comprising the same” (priority 2021, dated 2026).
Read-outs that look alike come from different tables or passages of the source.

How the values were obtained:
[1] = system: SARS-CoV-2; assay: microbe, parasite or virus in culture; assay type: cell-based; settings: Severe acute respiratory syndrome coronavirus 2, VeroE6/TMPRSS2, 72 h, 50% SARS-CoV-2 infected cell death inhibitory concentration, VeroE6/TMPRSS2 cells, 3 days culture
[2] = target: SARS-CoV-2 3CL protease (Severe acute respiratory syndrome coronavirus 2, UniProt P0DTD1); assay: biochemical; settings: 50% SARS-CoV-2 3CL protease inhibitory concentration, read-out: IC50

Compound: Cn1cnc(Cn2c(=O)nc(Nc3cc4cn(CC5(NC(=O)OC(C)(C)C)CC5)nc4cc3Cl)n(Cc3cc(F)c(F)c(Cl)c3)c2=O)n1 [II-0565]
- EC50 ([1]; class symbols): 1000 to 10000 nM
- IC50 ([2]; given as class symbols): < 100 nM

Compound: CNc1nc2cc(Cl)c(Nc3nc(=O)n(Cc4ncn(C)n4)c(=O)n3Cc3cc(F)c(F)c(Cl)c3)cc2s1 [II-0235]
- EC50 ([1]; class symbols): 1000 to 10000 nM
- IC50 ([2]; given as class symbols): < 100 nM

Compound: Cn1cnc(Cn2c(=O)nc(Nc3cc4c(F)n(C)nc4cc3Cl)n(Cc3cc(F)c(F)cc3F)c2=O)n1 [II-0455]
- EC50 ([1]; CellTiter-Glo 2.0): 750 nM
- IC50 ([2]; RapidFire MS): 19 nM

Compound: Cc1cncc(-n2c(=O)nc(Nc3cc4c(C#N)n(C)nc4cc3Cl)n(Cc3ccc(F)c(C#N)c3)c2=O)c1 [II-0368]
- EC50 ([1]; class symbols): 1000 to 10000 nM
- IC50 ([2]; given as class symbols): < 100 nM

Compound: Cn1cc2cc(Nc3nc(=O)n(-c4cncc(C#N)c4)c(=O)n3Cc3cc(F)c(F)c(Cl)c3)c(Cl)cc2n1 [II-0489]
- EC50 ([1]; class symbols): 1000 to 10000 nM
- IC50 ([2]; given as class symbols): < 100 nM

Compound: Cc1cncc(-n2c(=O)nc(Nc3ccc4nn(C)nc4c3)n(Cc3ccc(F)c(C#N)c3)c2=O)c1 [II-0183]
- EC50 ([1]; class symbols): < 1000 nM
- IC50 ([2]; given as class symbols): < 100 nM

Compound: O=c1[nH]cccc1Cn1c(=O)nc(NC2CCOCC2)n(Cc2cc(F)c(F)c(F)c2)c1=O [Compound I-0132]
- EC50 ([1]; class symbols): < 1000 nM
- IC50 ([2]; given as class symbols): 1000 to 10000 nM
- IC50 ([2]; RapidFire MS): 2300 nM

Compound: CNc1cncc(-n2c(=O)nc(Nc3cc4cn(C)nc4cc3Cl)n(Cc3cc(F)c(F)cc3F)c2=O)c1 [II-0600]
- EC50 ([1]; class symbols): < 1000 nM
- IC50 ([2]; given as class symbols): < 100 nM

Compound: COc1ccc(Nc2nc(=O)n(Cc3ccc[nH]c3=O)c(=O)n2CC2CCCCC2)cc1 [Compound I-0134]
- EC50 ([1]; class symbols): < 1000 nM
- IC50 ([2]; given as class symbols): 1000 to 10000 nM
- IC50 ([2]; RapidFire MS): 4000 nM

Compound: Cc1cncc(-n2c(=O)nc(Nc3cc4cn(C)nc4cc3F)n(Cc3cc(C#N)c(F)cc3Cl)c2=O)c1 [II-0053]
- EC50 ([1]; class symbols): < 1000 nM
- IC50 ([2]; given as class symbols): < 100 nM

Compound: Cn1cnc(Cn2c(=O)nc(Nc3cc4c(cc3Cl)OCC4)n(Cc3cc(F)c(F)c(Cl)c3)c2=O)n1 [II-0046]
- EC50 ([1]; class symbols): < 1000 nM
- IC50 ([2]; given as class symbols): < 100 nM

Compound: CCn1cc2cc(Nc3nc(=O)n(-c4cncc(C)c4)c(=O)n3Cc3ccc(F)c(C#N)c3)ccc2n1 [II-0010]
- EC50 ([1]; CellTiter-Glo 2.0): 940 nM
- IC50 ([2]; RapidFire MS): 19 nM

Compound: O=c1[nH]cccc1Cn1c(=O)nc(NC2CCCCC2)n(Cc2cc(F)c(F)c(F)c2)c1=O [II-0228]
- EC50 ([1]; CellTiter-Glo 2.0): 5000 nM
- IC50 ([2]; RapidFire MS): 240 nM

Compound: COc1ccc(Nc2nc(=O)n(CC3CCNC3=O)c(=O)n2Cc2cc(F)c(F)c(F)c2)cc1 (racemic) [Compound I-0301]
- EC50 ([1]; class symbols): < 1000 nM
- IC50 ([2]; given as class symbols): 1000 to 10000 nM
- IC50 ([2]; RapidFire MS): 3800 nM

Compound: Cc1ccc(C#N)cc1Cn1c(Nc2ccc3nn(C)cc3c2)nc(=O)n(-c2cncc(Cl)c2)c1=O [II-0347]
- EC50 ([1]; CellTiter-Glo 2.0): 190 nM
- IC50 ([2]; RapidFire MS): 7 nM

Compound: Cc1nc2cc(C)c(Nc3nc(=O)n(Cc4ccc[nH]c4=O)c(=O)n3Cc3cc(F)c(F)c(F)c3)cc2s1 [Compound I-0116]
- EC50 ([1]; class symbols): 1000 to 10000 nM
- IC50 ([2]; given as class symbols): < 100 nM

Compound: CCn1cc2cc(Nc3nc(=O)n(-c4cncc(C)c4)c(=O)n3Cc3cc(C#N)c(F)cc3C)ccc2n1 [II-0335]
- EC50 ([1]; CellTiter-Glo 2.0): 241 nM
- IC50 ([2]; RapidFire MS): 3.2 nM

Compound: Cc1cc(F)c(C#N)cc1Cn1c(Nc2cc3cn(C)nc3cc2F)nc(=O)n(-c2cncc(Cl)c2)c1=O [II-0365]
- EC50 ([1]; class symbols): < 1000 nM
- IC50 ([2]; given as class symbols): < 100 nM

Compound: Cn1cc2cc(Nc3nc(=O)n(-c4cncc(Cl)c4)c(=O)n3Cc3ccc(F)c(C#N)c3)c(F)cc2n1 [II-0525]
- EC50 ([1]; CellTiter-Glo 2.0): 533 nM
- IC50 ([2]; RapidFire MS): 16 nM

Compound: Cn1cc2cc(Nc3nc(=O)n(Cc4ccc[nH]c4=O)c(=O)n3Cc3cc(F)c(F)cc3F)c(Cl)cc2n1 [Compound I-0009]
- EC50 ([1]; class symbols): < 1000 nM
- IC50 ([2]; given as class symbols): < 100 nM

Compound: Cn1cc2cc(Nc3nc(=O)n(-c4cncc(Cl)c4)c(=O)n3Cc3cc(F)c(F)cc3F)c(F)cc2n1 [II-0475]
- EC50 ([1]; class symbols): 1000 to 10000 nM
- IC50 ([2]; given as class symbols): < 100 nM

Compound: Cc1cncc(-n2c(=O)nc(Nc3cc4cn(C)nc4cc3Cl)n(Cc3ccc(F)cc3Br)c2=O)c1 [II-0220]
- EC50 ([1]; class symbols): 1000 to 10000 nM
- IC50 ([2]; given as class symbols): < 100 nM

Compound: CC1c2ccccc2CN1c1nc(=O)n(Cc2ccc[nH]c2=O)c(=O)n1Cc1cc(F)c(F)c(F)c1 (centres unmarked) [II-0213]
- EC50 ([1]; class symbols): 1000 to 10000 nM
- IC50 ([2]; given as class symbols): < 100 nM

Compound: O=c1[nH]cccc1Cn1c(=O)nc(Nc2cc3cn(C(F)F)nc3cc2Cl)n(Cc2cc(F)c(F)c(F)c2)c1=O [Compound I-0357]
- EC50 ([1]; class symbols): 1000 to 10000 nM
- IC50 ([2]; given as class symbols): < 100 nM

Compound: Cc1cncc(-n2c(=O)nc(Nc3cc4c(cc3Cl)OCC4)n(Cc3ccc(F)c(C#N)c3)c2=O)c1 [II-0156]
- EC50 ([1]; class symbols): < 1000 nM
- IC50 ([2]; given as class symbols): < 100 nM

Compound: Cc1cncc(-n2c(=O)nc(Nc3cc4cn(C)nc4cc3Cl)n(Cc3ccc(F)c(C#N)c3)c2=O)c1F [II-0265]
- EC50 ([1]; class symbols): < 1000 nM
- IC50 ([2]; given as class symbols): < 100 nM

Compound: CCCCn1cc2cc(Nc3nc(=O)n(Cc4ccc[nH]c4=O)c(=O)n3Cc3cc(F)c(F)c(F)c3)c(Cl)cc2n1 [Compound I-0286]
- EC50 ([1]; class symbols): 1000 to 10000 nM
- IC50 ([2]; given as class symbols): < 100 nM

Compound: CNc1nc2cc(Cl)c(Nc3nc(=O)n(-c4cncc(C)c4)c(=O)n3Cc3cc(Cl)c(F)cn3)cc2s1 [II-0589]
- EC50 ([1]; class symbols): 1000 to 10000 nM
- IC50 ([2]; given as class symbols): < 100 nM
